Reference: patent US9801949B2, “Combinations of albumin-based drug delivery systems” (KTB TUMORFORSCHUNGSGESELLSCHAFT MBH, priority 2012, dated 2017)
Marks after values point to notes of the source that are not given here. Numbered stars: 1 amine (or outer) side, 2 acyl side, 3 side chain; on linkers, the order of the positions; unused ones are H or OH. Square brackets hold non-standard residues; d marks the D form. Side chains are listed from the residue outwards. Peptide text beside a SMILES is read from it. * marks the point of attachment. DAMPA = CN(Cc1cnc2nc(N)nc(N)c2n1)c1ccc(C(=O)*)cc1; Hexanoyl(6-maleimido) = O=C1C=CC(=O)N1CCCCCC(=O)*; γGlu = O=C(O)[C@H](CCC(=O)[*:2])N[*:1]

Experiments:
[1] = system: MiaPaCa-2 pancreatic carcinoma xenograft; details: for toxic death: 7 mice per group, i.v. on days 10, 17, 24, dose per Table 1; for antitumor efficacy (in words): MiaPaCa-2 xenograft, up to end of experiment (day 43), doses as in Table 1; for Tumor volume (day 43): s.c. MiaPaCa-2 xenografts, i.v. on days 10, 17, 24, dose per Table 1, median initial tumor volume 0.062 cm^3
Description: In vivo efficacy studies in the MiaPaCa-2 xenograft model were carried out with doxorubicin, the 6-maleimidocaproyl(hydrazone) derivative of doxorubicin (DOXO-EMCH), the albumin-binding prodrug of methotrexate AW054, a combination of the 6-maleimidocaproyl(hydrazone) derivative of doxorubicin (DOXO-EMCH) and the albumin-binding prodrug of methotrexate AW054, doxorubicin, methotrexate and a combination of doxorubicin and methotrexate.
DOXO-EMCH was dissolved in sterile 10 mM sodium phosphate, 5% D-(+)-glucose (pH 5.8) and the respective dose administered intravenously within 30 minutes after dissolution. All doses of DOXO-EMCH and AW054 administered in the studies are stated in doxorubicin and methotrexate equivalents, respectively. Adrimedac® from medac, Germany, was used as the doxorubicin reference (c=2 mg/mL). Methotrexate (Sodium salt from medac) was used as a stock solution (12.5 mg methotrexate/mL in 5% D-Glucose from Braun, sterile). The stock solution AW054 for intravenous administration was 2.0 mg AW054/mL in 5% D-Glucose from Braun, sterile.
For in vivo testing in the MiaPaCa-2 xenograft model, female NMRI: nu/nu mice (Taconic, Denmark) were used. The mice were held in individually ventilaged cages (IVC) under sterile and standardized environmental conditions (25±2° C. room temperature, 50±10% relative humidity, 12 hour light-dark-rhythm). They received autoclaved food and bedding (ssniff, Soest, Germany) and acidified (pH 4.0) drinking water ad libitum. All animal experiments were performed under the auspices of the German Animal Protection Law.
MiaPaCa-2 cells (5×10^6 cells/mouse) were transplanted subcutaneously (s.c.) into the left flank region of each mouse on day zero. Mice were randomly distributed to the experimental groups (7 mice per group). Treatment was initiated at day 10 when the tumors were grown to a size of ˜60 mm^3. Mice were treated on a weekly schedule with 3×6 mg/kg doxorubicin (MTD), 2×125 mg/kg methotrexate (MTD), 3×24 mg/kg DOXO-EMCH (doxorubicin equivalents) (MTD), 3×20 mg/kg AW054 (methotrexate equivalents) (MTD), and a combination of 3×12 mg/kg DOXO-EMCH and 3×10 mg/kg AW054 or a combination of 3×3 mg/kg doxorubicin and 3×62.5 mg/kg methotrexate. All compounds were injected once a week for three weeks (days 10, 17, 24). The injection volume was 0.2 mU20 g body weight. Tumor size was measured twice weekly with a caliper-like instrument in two dimensions. Individual tumor volumes (V) were calculated by the formula V=(length×[width]^2)/2 and related to the values on the first day of treatment (relative tumor volume, RTV). The experiment was ended on day 43. Statistical analysis was performed with the U-test (Mann and Whitney) with p<0.05. The body weight of mice was determined every 3 to 4 days.
Combination therapy with doxorubicin and methotrexate was carried out at in a three weekly schedule (i.v.) at half of their maximum tolerated dose (MTD), i.e. 3×3 mg/kg for doxorubicin and 3×62.5 mg/kg methotrexate. Both DOXO-EMCH and AW054 were administered simultaneously (i.v.) in a three weekly schedule at half of their maximum tolerated dose (MTD), i.e. 3×12 mg/kg for DOXO-EMCH (doxorubicin equivalents) and 3×10 mg/kg (methotrexate equivalents) and at their respective MTDs, i.e. 3×24 mg/kg for DOXO-EMCH (doxorubicin equivalents) and 3×20 mg/kg for AW054 (methotrexate equivalents) (see the following Table 1).

[2] = system: ovarian carcinoma xenograft model (OVCAR3); details: cited from earlier work
[3] = conjugate formed with cysteine-34 of albumin; cited from earlier work
[4] = system: several xenograft and orthotopic tumor models; details: cited from earlier work

SMILES	toxic death [1]	antitumor efficacy (in words) [1]	Tumor volume (day 43) [1]	efficacy compared to methotrexate [2]	stability of albumin conjugate in human plasma [3]	efficacy compared to free doxorubicin [4]
C[C@@H](NC(=O)CCCCCN1C(=O)C=CC1=O)C(=O)N[C@@H](Cc1ccccc1)C(=O)N[C@@H](CCCCN)C(=O)N[C@@H](CCCCNC(=O)CC[C@H](NC(=O)c1ccc(N(C)Cc2cnc3nc(N)nc(N)c3n2)cc1)C(=O)O)C(=O)O [AW054, EMC-D-Ala-Phe-Lys-Lys(γ-MTX)-OH] ({Hexanoyl(6-maleimido)}-[dA]FKK([γGlu-DAMPA])-OH)	0	only showed moderate antitumor effects	0.264 ± 0.226* cm^3	superior compared to methotrexate	stable in human plasma	–
COc1cccc2c1C(=O)c1c(O)c3c(c(O)c1C2=O)CC(O)(C(CO)=NNC(=O)CCCCCN1C(=O)C=CC1=O)CC3OC1CC(N)C(O)C(C)O1 (centres unmarked) [DOXO-EMCH, 6-maleimidocaproyl(hydrazone) derivative of doxorubicin]	–	partial remission	0.034 ± 0.064* cm^3	–	–	superior efficacy over free doxorubicin
COc1cccc2c1C(=O)c1c(O)c3c(c(O)c1C2=O)C[C@@](O)(C(=O)CO)C[C@@H]3O[C@H]1C[C@H](N)[C@H](O)[C@H](C)O1 [Doxorubicin, doxorubicin]	0	only showed moderate antitumor efficacy	0.190 ± 0.125* cm^3	–	–	–
CN(Cc1cnc2nc(N)nc(N)c2n1)c1ccc(C(=O)N[C@@H](CCC(=O)O)C(=O)O)cc1 [Methotrexate, methotrexate]	0	only showed moderate antitumor efficacy	0.396 ± 0.307* cm^3	–	–	–
